Test results taken from patent publication US20240140941A1, “DERIVATIVE OF 2,5-DIKETOPIPERAZINE COMPOUND, AND PREPARATION METHOD THEREFOR, PHARMACEUTICAL COMPOSITION THEREOF AND USE THEREOF” (DALIAN WZ PROBIOTICS AD HEALTH CO., LTD, priority 2020, published 2024).
Read-outs that look alike come from different tables or passages of the source.

Assays:
NCI-H460 = assay: Inhibition test on cell proliferation (MTT), NCI-H460; assay type: cell-based, human
Method: (§1) Tumor cells (NCI-H460, BxPC-3, HT-29, HCC-LM3) in the logarithmic growth phase were digested, centrifuged, and the supernatants were removed. Cells were resuspended by adding fresh culture medium, and counted using a cell counting plate. 100 μL of culture medium (containing cells) was added to a 96-well plate according to the standard of 2000 to 6000 cells per well and incubated in an incubator (37° C., 5% CO2) for 24 hours. After the cells were completely adhered to the wall, the test sample and Plinabulin were diluted to different concentrations using fresh culture medium, and 4 wells were set for each concentration. After 72 hours of drug treatment, the culture medium was removed, and 20 μL of MTT at a concentration of 5 mg/mL was added to each well. After 3-4 hours in the incubator, the MTT was discarded, and 100 μL of DMSO was added to each well, and placed in a 96-well plate shaker to completely dissolve the purple formazan. Subsequently, the absorbance (OD value) was detected at a wavelength of 490 nm using a microplate reader. The experiment also required setting up zero-setting wells (blank culture medium, MTT, DMSO). Cell inhibition rate=1−(OD value of drug-dosed group−OD value of zero-setting group)/(OD value of blank group−OD value of zero-setting group)×100%.

BxPC-3 = assay: Inhibition test on cell proliferation (MTT), BxPC-3; assay type: cell-based, human; settings: read-out: IC50 (nM) BxPC-3
Method: as §1

[1] = Homo sapiens, NCI-H460, 72 h, 72 hours of drug treatment, MTT, read-out: IC50 (nM) NCI-H460
[2] = 72 hours of drug treatment, MTT, read-out: IC50 (nM) NCI-H460
[3] = 72 hours of drug treatment, MTT
[4] = Homo sapiens, BXPC-3, 72 h, 72 hours of drug treatment, MTT
[5] = Homo sapiens, NCI-H460, 72 h, read-out: IC50 (nM) NCI-H460, 72 hours of drug treatment, MTT

Row | Compound | IC50 (NCI-H460; [1]) [nM] | IC50 (BxPC-3; [4]) [nM] | further results
1 | CC(C)c1c(/C=c2\[nH]c(=O)/c(=C/c3ccc(F)cc3)[nH]c2=O)ncn1CCCN1CCOCC1 [PLN-2-11, (3Z,6Z)-3-p-fluorobenzylidene-6-((5-isopropyl-1-(−3-morpholinyl)propylimidazol-4-yl)methylene)piperazine-2,5-dione] | 234 ± 25.7 | – | –
2 | CC1CN(CCCn2cnc(/C=c3\[nH]c(=O)/c(=C/c4cccc(C(=O)c5ccc(F)cc5)c4)[nH]c3=O)c2C(C)C)CC(C)O1 (stereo not shown) [PLN-2-12, (3Z,6Z)-3-(3-(p-fluorobenzoyl)phenyl)methylene-6-((5-isopropyl-1-((2,6-dimethyl)-3-morpholinyl)propylimidazol-4-yl)methylene)piperazine-2,5-dione] | – | – | IC50 (NCI-H460; [2]): 3.77 ± 0.62 nM; IC50 (BxPC-3; [3]): 2.48 ± 2.12 nM
3 | CC1CN(CCCn2cnc(/C=c3\[nH]c(=O)/c(=C/c4cccc(C(=O)c5ccc(F)cc5)c4)[nH]c3=O)c2C(C)C)CC(C)O1 (stereo not shown) [PLN-2-13, (3Z,6Z)-3-(3-(p-fluorobenzoyl)phenyl)methylene-6-((5-isopropyl-1-((2,6-dimethyl)-3-morpholinyl)propylimidazol-4-yl)methylene)piperazine-2,5-dione] | – | – | IC50 (NCI-H460; [2]): 8.2 ± 0.54 nM; IC50 (BxPC-3; [3]): 14.9 ± 2.62 nM
4 | CC(C)c1c(/C=c2\[nH]c(=O)/c(=C/c3cccc(C(=O)c4ccc(F)cc4)c3)[nH]c2=O)ncn1CCCN1CCN(C(=O)OC(C)(C)C)CC1 [PLN-2-15, (3Z,6Z)-3-(3-(p-fluorobenzoyl)phenyl)methylene-6-((5-isopropyl-1-(3-N-tert-butoxycarbonylpiperazinyl)propylimidazol-4-yl)methylene)piperazine-2,5-dione] | 8.01 ± 1.24 | 6.77 ± 0.08 | –
5 | CC(C)c1c(/C=c2\[nH]c(=O)/c(=C/c3cccc(Oc4ccc(F)cc4)c3)[nH]c2=O)ncn1CCCN1CCN(C(=O)OC(C)(C)C)CC1 [PLN-2-17, (3Z,6Z)-3-(3-(4-Fluorophenoxy)phenyl)methylene-6-((5-isopropyl-1-(3-N-tert-butoxycarbonylpiperazinyl)propylimidazol-4-yl)methylene)piperazine-2,5-dione] | 41.8 ± 2.27 | 21.1 ± 2.41 | –
6 | O=c1[nH]/c(=C\c2ncn(CCCN3CCNCC3)c2C2CC2)c(=O)[nH]/c1=C\c1cccc(Oc2ccc(F)cc2)c1 [PLN-2-19-1] | – | – | IC50 (NCI-H460; read-out: IC50 (nM) NCI-H460, 72 hours of drug treatment, MTT): 204 ± 4.24 nM
7 | O=c1[nH]/c(=C\c2ncn(CCCN3CCNCC3)c2C2CC2)c(=O)[nH]/c1=C\c1cccc(Oc2ccc(F)cc2)c1 [PLN-2-19] | – | – | IC50 (NCI-H460; [5]): 213 ± 12.8 nM
8 | CC(C)c1c(/C=c2\[nH]c(=O)/c(=C/c3cc(F)ccc3F)[nH]c2=O)ncn1CCCN1CCNCC1 [PLN-2-20, (3Z,6Z)-3-(2,5-difluorophenyl)methylene-6-((5-isopropyl-1-(3-piperazinyl)propylimidazol-4-yl)methylene)piperazine-2,5-dione] | 147 ± 14.5 | 91.63 ± 0.62 | –
9 | CN1CCN(CCCn2cnc(/C=c3\[nH]c(=O)/c(=C/c4cccc(Oc5ccc(F)cc5)c4)[nH]c3=O)c2C2CC2)CC1 [PLN-2-23] | 158 ± 25.7 | – | –
10 | CC(C)c1c(/C=c2\[nH]c(=O)/c(=C/c3cc(F)ccc3F)[nH]c2=O)ncn1CCCN1CCN(C)CC1 [PLN-2-24] | 28.6 ± 1.4 | 13.19 ± 0.07 | –
11 | CC(C)c1c(/C=c2\[nH]c(=O)/c(=C/c3cccc(C(=O)c4ccc(F)cc4)c3)[nH]c2=O)ncn1CCCN1CCN(C(=O)OCc2ccc(B3OC(C)(C)C(C)(C)O3)cc2)CC1 [PLN-2-28, (3Z,6Z)-3-(3-(p-fluorobenzoyl)phenyl)methylene-6-((5-isopropyl-1-(3-N-p-(4,4,5,5-tetramethyl-1,3,2-dioxaborolan-2-yl)benzyloxycarbonylpiperazinyl)propylimidazol-4-yl)methylene)piperazine-2,5-dione] | – | – | IC50 (NCI-H460; [5]): 15.4 ± 1.68 nM; IC50 (BxPC-3; Homo sapiens, BXPC-3, 72 h): 9.22 ± 3.93 nM
12 | CC(C)c1c(/C=c2\[nH]c(=O)/c(=C/c3cccc(C(=O)c4ccc(F)cc4)c3)[nH]c2=O)ncn1CCCN1CCN(C(=O)C23CC4CC(CC(C4)C2)C3)CC1 [PLN-2-39, (3Z,6Z)-3-(3-(p-fluorobenzoyl)phenyl)methylene-6-((5-isopropyl-1-(3-N-adamantanecarbonylpiperazinyl)propylimidazol-4-yl)methylene)piperazine-2,5-dione] | – | – | IC50 (NCI-H460; [5]): 37.2 ± 3.61 nM

Second part, led by results:

Row | IC50 (NCI-H460; [1]) [nM] | IC50 (BxPC-3; [4]) [nM] | Compound | further results
13 | 9.33 ± 0.54 | 9.33 ± 0.45 | CC1CN(CCCn2cnc(/C=c3\[nH]c(=O)/c(=C/c4cccc(C(=O)c5ccc(F)cc5)c4)[nH]c3=O)c2C2CC2)CC(C)O1 (stereo not shown) [PLN-2-14, (3Z,6Z)-3-(3-(p-fluorobenzoyl)phenyl)methylene-6-((5-cyclopropyl-1-((2,6-dimethyl)-3-morpholinyl)propylimidazol-4-yl)methylene)piperazine-2,5-dione] | –
14 | 85.7 ± 10.6 | 66.2 ± 1.45 | CC(C)c1c(/C=c2\[nH]c(=O)/c(=C/c3cccc(Oc4ccc(F)cc4)c3)[nH]c2=O)ncn1CCCN1CCN(C)CC1 [PLN-2-22, (3Z,6Z)-3-(3-(p-fluorophenoxy)phenyl)methylene-6-((5-isopropyl-1-(3-N-methylpiperazinyl)propylimidazol-4-yl)methylene)piperazine-2,5-dione] | –
15 | 18.4 ± 2.95 | – | CC(C)c1c(/C=c2\[nH]c(=O)/c(=C/c3cccc(C(=O)c4ccc(F)cc4)c3)[nH]c2=O)ncn1CCCN1CCN(Cc2ccccc2)CC1 [PLN-2-25, (3Z,6Z)-3-(3-(p-fluorobenzoyl)phenyl)methylene-6-((5-isopropyl-1-(3-N-benzylpiperazinyl)propylimidazol-4-yl)methylene)piperazine-2,5-dione] | –
16 | 50.1 ± 0.69 | – | CC(C)c1c(/C=c2\[nH]c(=O)/c(=C/c3cccc(C(=O)c4ccc(F)cc4)c3)[nH]c2=O)ncn1CCCN1CCN(c2ccc(F)cc2)CC1 [PLN-2-26, (3Z,6Z)-3-(3-(p-fluorobenzoyl)phenyl)methylene-6-((5-isopropyl-1-(3-N-(p-fluorophenyl)piperazinyl)propylimidazol-4-yl)methylene)piperazine-2,5-dione] | –
17 | 23.9 ± 4.76 | 17.9 ± 5.9 | CC(C)c1c(/C=c2\[nH]c(=O)/c(=C/c3cccc(C(=O)c4ccc(F)cc4)c3)[nH]c2=O)ncn1CCCN1CCN(Cc2ccc(B3OC(C)(C)C(C)(C)O3)cc2)CC1 [PLN-2-27, (3Z,6Z)-3-(3-(p-fluorobenzoyl)phenyl)methylene-6-((5-isopropyl-1-(3-N-(4-(4,4,5,5-tetramethyl-1,3,2-dioxaborolan-2-yl))benzylpiperazinyl)propylimidazol-4-yl)methylene)piperazine-2,5-dione] | –
18 | 3.46 ± 0.25 | 1.4 ± 0.04 | CC(C)c1c(/C=c2\[nH]c(=O)/c(=C/c3cccc(C(=O)c4ccc(F)cc4)c3)[nH]c2=O)ncn1CCCN1CCN(C=O)CC1 [PLN-2-29, (3Z,6Z)-3-(3-(p-fluorobenzoyl)phenyl)methylene-6-((5-isopropyl-1-(3-N-formylpiperazinyl)propylimidazol-4-yl)methylene)piperazine-2,5-dione] | –
19 | 3.98 ± 0.33 | 2.3 ± 0.08 | CC(=O)N1CCN(CCCn2cnc(/C=c3\[nH]c(=O)/c(=C/c4cccc(C(=O)c5ccc(F)cc5)c4)[nH]c3=O)c2C(C)C)CC1 [PLN-2-30, (3Z,6Z)-3-(3-(p-fluorobenzoyl)phenyl)methylene-6-((5-isopropyl-1-(3-N-acetylpiperazinyl)propylimidazol-4-yl)methylene)piperazine-2,5-dione] | –
20 | 6.93 ± 0.96 | 2.48 ± 0.57 | CCC(=O)N1CCN(CCCn2cnc(/C=c3\[nH]c(=O)/c(=C/c4cccc(C(=O)c5ccc(F)cc5)c4)[nH]c3=O)c2C(C)C)CC1 [PLN-2-31, (3Z,6Z)-3-(3-(p-fluorobenzoyl)phenyl)methylene-6-((5-isopropyl-1-(3-N-propionylpiperazinyl)propylimidazol-4-yl)methylene)piperazine-2,5-dione] | –
21 | 7.95 ± 1.29 | 4.16 ± 0.78 | CC(C)C(=O)N1CCN(CCCn2cnc(/C=c3\[nH]c(=O)/c(=C/c4cccc(C(=O)c5ccc(F)cc5)c4)[nH]c3=O)c2C(C)C)CC1 [PLN-2-32, (3Z,6Z)-3-(3-(p-fluorobenzoyl)phenyl)methylene-6-((5-isopropyl-1-(3-N-isobutyrylpiperazinyl)propylimidazol-4-yl)methylene)piperazine-2,5-dione] | –
22 | 7.3 ± 0.44 | – | CC(C)c1c(/C=c2\[nH]c(=O)/c(=C/c3cccc(C(=O)c4ccc(F)cc4)c3)[nH]c2=O)ncn1CCCN1CCN(C(=O)C2CCCCC2)CC1 [PLN-2-38, (3Z,6Z)-3-(3-(p-fluorobenzoyl)phenyl)methylene-6-((5-isopropyl-1-(3-N-cyclohexanecarbonylpiperazinyl)propylimidazol-4-yl)methylene)piperazine-2,5-dione] | –
23 | 11.1 ± 0.9 | – | CC(C)c1c(/C=c2\[nH]c(=O)/c(=C/c3cccc(C(=O)c4ccc(F)cc4)c3)[nH]c2=O)ncn1CCCN1CCN(S(=O)(=O)c2ccccc2)CC1 [PLN-2-43, (3Z,6Z)-3-(3-(p-fluorobenzoyl)phenyl)methylene-6-((5-isopropyl-1-(3-N-phenylmethylsulfonylpiperazinyl)propylimidazol-4-yl)methylene)piperazine-2,5-dione] | –
